According to patent US20160296511A1, “LAQUINIMOD FOR REDUCING THALAMIC DAMAGE IN MULTIPLE SCLEROSIS” (Teva Pharmaceutical Industries, Ltd., priority 2012, published 2016):
“Also recorded” adds a separate entry of the source.

Assays:
subjects with RRMS [1] = test: ALLEGRO phase III clinical trial of daily oral laquinimod 0.6 mg in RRMS; assay type: in vivo, human; conditions: laquinimod 0.6 mg daily oral, 24 months
Experimental: A multinational (24 countries), multicenter (approximately 139 sites), randomized, double-blinded, parallel-group, placebo-controlled clinical trial (“ALLEGRO” or MS-LAQ-301) was conducted to evaluate the efficacy, safety and tolerability of daily oral administration of laquinimod 0.6 mg in subjects with RRMS for a 24 months duration. One thousand one hundred and six (1106) patients were equally randomized to either laquinimod 0.6 mg or placebo and treated in a double-blind manner and baseline characteristics were balanced between groups. The primary endpoint of the study was the number of confirmed relapses during the double-blind treatment period, which corresponds to the annualized relapse rate (ARR—number of relapses divided by total exposure of all patients). Secondary endpoints included disability as measured by Expanded Disability Status Scale (EDSS) changes confirmed at 3 months, and cumulative number of gadolinium enhancing (GdE) and new/enlarging T2 MRI lesions. Double blind treatment phase: 24 months of once-daily oral administration of daily dose of 0.6 mg laquinimod or matching placebo. Eligible subjects were equally randomized 1:1 into one of the following treatment arms: • 1. Laquinimod capsules 0.6 mg: One 0.6 mg laquinimod capsule was administered orally once daily. The 0.6 mg laquinimod capsules contain 0.6 mg of Laquinimod Acid per capsule with meglumine, and were manufactured according to the method disclosed in PCT International Application Publication No. WO/2007/146248, published Dec. 21, 2007 (see, page 10, line 5 to page 11, line 3). • 2. Matching placebo for laquinimod arm: one capsule is administered once daily. The primary endpoint was the number of confirmed relapses during the double-blind study period. […] An event was counted as a relapse if the subject's symptoms were accompanied by observed objective neurological changes consistent with at least one of the following: an increase of at least 0.5 in the EDSS score; an increase of one grade in two or more of the seven functional systems; or an increase of two grades in one functional system. […] Secondary endpoints were disability progression as measured by the EDSS and the MSFC. […] Additional predefined disability endpoints include the proportion of patients without confirmed disability progression at 24 months; confirmed disability progression (defined as change in EDSS scores ≧1.0 points for baseline EDSS 0 to 5.0 or ≧5.5) sustained for six months; the accumulation of physical disability as measured by mean EDSS and the mean change in EDSS from baseline to last observed value (LOV). […]

[2] = tested on: subject afflicted by tremor or spasticity; test: Example 3: oral laquinimod in treating tremor and spasticity; assay type: in vivo
Experimental: A composition comprising laquinimod as described herein is administered to a subject afflicted by tremor. […] A composition comprising laquinimod as described herein is administered to a subject afflicted by tremor. […] A composition comprising laquinimod as described herein is administered to a subject afflicted by spasticity. […] A composition comprising laquinimod as described herein is administered to a subject afflicted by tremor.

RRMS patients = conditions: cited from earlier work
subjects with RRMS [3] = test: ALLEGRO sub-study: 1H-MRS, NAA/Cr ratio in WM; assay type: in vivo, human; conditions: at 24 months; difference vs placebo not statistically significant (p=0.179), N=27
Experimental: • 1. Frequent MRI (selected countries and sites only): The cumulative number of T1-Gd enhancing lesions taken from scans obtained at months 0, 3, 6, 12, and 24, and in case the study is be extended, 30. Additional MRIs for the ancillary study are performed at months 3 and 6. • 2. Magnetization Transfer (MT) (selected countries and sites only): the change from baseline to month 12 and 24/30 months in magnetization transfer MRI. MT was assessed at months 0 (baseline), 12 and 24 (termination/early discontinuation). In case of the 6 months extended study, the last MT was performed at month 30 (termination/early discontinuation of the extended study) instead of month 24. • 3. Proton MR Spectroscopy (^1H-MRS) (selected countries and sites only): Change from baseline to 24/30 in ^1H-MRS metabolites. ^1H-MRS was assessed at months 0 (baseline), and 24 (termination/early discontinuation). In case of the 6 months extended study, the last ^1H-MRS was performed at month 30 (termination/early discontinuation of the extended study) instead of month 24. • 4. Pharmacogenetic (PGx) assessment: Blood samples for PGx parameters were collected from all subjects at screening. • 5. […] Changes in NAA/Cr from baseline to month 24 was analyzed using ANCOVA.

For `CCN(C(=O)c1c(O)c2c(Cl)cccc2n(C)c1=O)c1ccccc1` [Laquinimod], the Annualized relapse rates (subjects with RRMS [1]) was “effectively reduced annualized relapse rates”, the Brain atrophy (subjects with RRMS [1]) was “reduced brain atrophy” and the “Development of new lesions” value (subjects with RRMS [1]) was “reduced the development of new lesions”. The Progression of disability (subjects with RRMS [1]) was “slowed the progression of disability”, the “Spasticity in the subject” value ([2]; subject afflicted by spasticity) was “effective to inhibit spasticity; also recorded: effective to reduce spasticity” and the “Tremor in the subject” value ([2]; subject afflicted by tremor) was “effective to inhibit tremor; also recorded: effective to reduce tremor”. The “Disability and brain atrophy progression” value (RRMS patients; 0.6 mg/day, RRMS patients) was “slowed disability and brain atrophy progression”, the “Rate of whole brain atrophy compared with placebo” value (RRMS patients; ALLEGRO and BRAVO) was “decreased the rate of whole brain atrophy” and the “Safety and tolerability profile” value (RRMS patients; two phase III trials) was “favorable safety and tolerability profile”. For the same compound, the “WM NAA/Cr ratio” value (subjects with RRMS [3]) was “tended to increase”.
